{"source": "paper PMC9231138", "about": "“Dihydrotanshinone I Enhances Cell Adhesion and Inhibits Cell Migration in Osteosarcoma U−2 OS Cells through CD44 and Chemokine Signaling” (Molecules, 2022)", "assay_type_in_all_cases": "cell-based, human", "key": {"[1]": {"system": "U−2 OS cells", "test": "Length of actin protrusions (Image J)", "settings": "DS−1 for 24 h", "method": "(§1) Figure 8 CD44 knockdown reduced cell adhesion by shortening cell protrusions. (A) U−2 OS cells transfected with CD44 siRNA and no siRNA were seeded into a 24-well plate treated with 7.5 μM DS−1 for 24 h, and the expression of CD44 was detected by immunofluorescence. (B) CD44 expression of U−2 OS cells was detected by Western blotting after being treated with siRNA for 0, 24, and 36 h. (C) U−2 OS cells were first transfected with/without CD44 siRNA and then treated with DS−1 for 24 h, and its actin morphologies were detected. The representative magnified actin morphologies are listed in (D). (E) The lengths of protrusions in (C) were analyzed by Image J and are shown in a scatterplot graph. The lengths of 20 protrusions from actin in (C) were calculated. Each value is the average of 20 lengths of protrusions, ** p < 0.01, *** p < 0.005. (F) U−2 OS cells were transfected with CD44 siRNA, then treated with 0 and 7.5 μM DS−1 for 24 h and digested with trypsin at 25 °C; the digestion time was recorded by a microscope, and photos were taken every 30 s. The percentage of digested cells is recorded in (G).\nActin promotes the formation of protrusions around the cells. After CD44 knockdown and DS−1 treatment, the morphology of actin was observed. The average length of protrusions was measured by Image J [59]. […]"}, "[2]": {"system": "U−2 OS cells transfected with CD44 siRNA", "test": "Trypsin digestion time, CD44 siRNA knockdown U−2 OS cells", "settings": "DS−1 7.5 μM for 24 h, 25 °C, control about 120 s", "method": "as §1\nSmall interfering RNA (siRNA) oligonucleotide was synthesized by Sunya Biotechnology Co., Ltd (Hangzhou, China). The siRNA sequences were as follows: sense (5′–3′), UAUUCCACGUGGAGAAAAAtt; antisense (5′–3′), UUUUUCUCCACGUGGAAUAca. […]"}, "[3]": {"system": "FOXO1", "test": "FOXO1 by immunofluorescence and immunoblotting", "settings": "DS−1 3.125, 6.25, and 12.5 μM", "method": "Figure 3 DS−1 inhibited the expression of transcription factor FOXO1 in U−2 OS cells. (A) U−2 OS cells were treated with DS−1 at 0, 3.125, 6.25, and 12.5 μM, and the changes in FOXO1 were analyzed by immunofluorescent staining, followed by confocal microscopy imaging. (B) U−2OS cells were treated with DS−1 at 0, 3.125, 6.25, and 12.5 μM, and FOXO1 and pFOXO1 were analyzed by Western blot; the changes were presented in histograms (C,D). (E) U−2 OS cells were treated with DS−1 at 6.25 μM for 0, 12, 24, and 48 h, then FOXO1 was analyzed by Western blot, and the changes are presented in the histogram (F). (G) The pFOXO1/FOXO1 value is shown in the histogram. […]\nSample preparation: U−2 OS cells seeded in 10 cm Petri dishes were collected and washed with ice-cold PBS and RIPA lysis buffer with PMAF; phosphatase inhibitor was added, and the tubes were placed on ice for 30 min and vortexed for 30 s at intervals of 10 min. […] The protein samples were placed on ice, and the concentration of each protein sample was measured by the BCA kit (Thermo). […]\nAntibody staining: We blocked the membrane for 1 h at room temperature using 5% blocking solution, then incubated the membrane with appropriate dilutions of the primary antibody in the blocking solution overnight at 4 °C. […] Images were acquired using darkroom development techniques for chemiluminescence and analyzed by Image J."}}, "data": [{"smiles": "Cc1cccc2c3c(ccc12)C1=C(C(=O)C3=O)[C@@H](C)CO1", "note": "[DS−1, 15,16-Dihydrotanshinone I]", "values": [{"measurement": "average length of protrusions", "setting": "[1]; CD44 knockdown group, knockdown without DS−1 0.203 ± 0.056 μm", "value": "0.213 ± 0.061", "unit": "μm"}, {"measurement": "average length of protrusions", "setting": "[1]; no CD44 siRNA, control 0.307 ± 0.097 μm", "value": "0.403 ± 0.103", "unit": "μm"}, {"measurement": "time to total trypsin digestion", "setting": "[2]", "value": "≤ 150", "unit": "s"}, {"measurement": "expression of FOXO1", "setting": "[3]", "value": "reduced"}]}]}
